PMC13286573, “Exploration of precision coregulator TR-FRET identifies diverse signatures for LXR ligands relevant to discovery of nonlipogenic ABCA1 inducers” (eLife, 2026)
Entries after “also recorded” stand apart in the source; their conditions may differ. Like-named read-outs stand apart in the source and are kept apart here.

Tests used:
ABCA1 = experiment: ABCA1-luc reporter assay in CCF-STTG1 astrocytoma cells; format: cell-based, human; conditions: normalized to T0
Excerpt: Astrocytoma CCF-STTG1 cells, stably transfected with an ABCA1-promoter linked to a luciferase response element, provide a model for ABCA1 induction in astrocytes ([Ben Aissa et al., 2021]). […] Apparent inverse agonist activity in cell-based assays can result from ‘true’ inverse agonist recruitment of corepressors or from antagonist activity towards endogenous sterol LXR agonists. Although we use serum-stripped media, antagonism of endogenous LXR agonists cannot be ruled out.
Low passage CCF-STTG1 cells (20,000 cells/well) were seeded in 96-well plates in media containing charcoal-stripped FBS and incubated at 37 °C and 5% CO2 for 24 hr prior to a 24 hr treatment. All compounds were dissolved in DMSO, and final DMSO concentrations never exceeded 1%. After a 24 hr incubation period, add a volume of ONE-GLOEX Reagent that is equal to the volume of culture medium in each well and incubate for 3–5 min on the shaker. The luminescent activity of compounds ([…], 10-fold dilution) was examined using the ONE-GLOEX assay (Promega). […] The assays were performed in duplicates for each concentration, and the EC50 values were determined from non-linear regression analysis of the dose-response curve generated in GraphPad Prism 9.

SREBF1, FAS, and SCD1 = experiment: RT-PCR of lipogenic genes SREBF1, FAS, SCD1 in HepG2 cells; format: cell-based, human; conditions: HepG2, same conditions as SRE-luc
Procedure: Three of the biphenyl sulfones, XL041, XL652, and SR9238, gave anomalous activation data at concentrations above 1 µM, associated with interference with the nanoluciferase reporter (Figure 5—figure supplement 1). Owing to the anomalous response in the reporter assay, we measured lipogenic genes, SREBF1, FAS, and SCD1 by RT-PCR in HepG2 cells in response to treatment with the biphenyl sulfones (Figure 5G–I).
HepG2 cells were seeded in 12-well plates and treated with compounds for 24 hr. Following treatment, cells were washed once with PBS and then lysed in 350 μL of RLT buffer (Qiagen). Lysates were immediately frozen at −80 °C until RNA extraction. Total RNA was extracted using RNeasy Plus Mini columns (Qiagen) according to the manufacturer’s instructions. RNA concentration and purity were assessed using the A260/A280 ratio measured on a Synergy Neo2 plate reader (BioTek). […] Quantitative PCR was performed using TaqMan Gene Expression Master Mix (Invitrogen) with 2 μL of cDNA and gene-specific TaqMan probes in a 20 μL reaction volume per well. The following TaqMan assays were used: ABCA1: Hs01059101_m1, SREBF1: Hs01088691_m1, SCD: Hs01682761_m1, FASN: Hs01005622_m1, and HPRT1 (endogenous control): Hs02800695_m1. qPCR was performed on a StepOne Real-Time PCR System (Applied Biosystems), and gene expression was quantified using the ΔΔCt method.

LXR = experiment: Corepressor (NCOR2, SMRT2) binding to LXR, CRT, statements across isoforms; format: biochemical; conditions: monoplex CRT, absence of coactivator
[1] = tested on: mouse model of non-alcoholic steatohepatitis (NASH); set-up: method as in Griffett et al., 2015; Griffett and Burris, 2016; conditions: ref Griffett et al., 2015; Griffett and Burris, 2016; cited from earlier work
LXRα [2] = target: T1, LXRα (Homo sapiens, UniProt Q13133); experiment: SRC-1 coactivator recruitment to LXRα, coregulator TR-FRET (CRT); format: biochemical; set-up: The CRT selectivity assay incorporates GST-tagged LXR-LBD; purchased Thermo Fisher Scientific PV4657; conditions: in the presence of 24HC (3 µM)
T1 sequence (Q13133 209-447 limits assumed): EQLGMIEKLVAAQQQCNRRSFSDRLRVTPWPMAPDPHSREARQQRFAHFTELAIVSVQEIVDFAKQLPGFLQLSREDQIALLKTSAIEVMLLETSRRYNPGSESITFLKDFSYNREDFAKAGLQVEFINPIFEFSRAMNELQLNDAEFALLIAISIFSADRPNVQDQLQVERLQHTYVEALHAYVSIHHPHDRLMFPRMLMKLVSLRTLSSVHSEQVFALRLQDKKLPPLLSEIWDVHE

LXRβ [3] = target: T2, LXRβ (Homo sapiens, UniProt P55055); experiment: SRC-1 coactivator recruitment to LXRβ, coregulator TR-FRET (CRT); format: biochemical; set-up: The CRT selectivity assay incorporates GST-tagged LXR-LBD; purchased Thermo Fisher Scientific PV4660
T2 sequence (P55055 222-460 limits assumed): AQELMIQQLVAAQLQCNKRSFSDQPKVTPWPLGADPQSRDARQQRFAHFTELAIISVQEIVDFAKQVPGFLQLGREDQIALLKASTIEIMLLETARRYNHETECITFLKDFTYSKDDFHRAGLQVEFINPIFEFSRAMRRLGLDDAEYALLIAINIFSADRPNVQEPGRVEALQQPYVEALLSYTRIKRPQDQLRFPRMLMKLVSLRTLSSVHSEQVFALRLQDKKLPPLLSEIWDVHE

LXRα [4] = target: T1, LXRα; experiment: NCOR2 corepressor binding to LXRα, CRT; format: biochemical; set-up: The CRT selectivity assay incorporates GST-tagged LXR-LBD; purchased Thermo Fisher Scientific PV4657; conditions: read-out: NCOR2α, relative % activity at 1 μM
LXRβ [5] = target: T2, LXRβ; experiment: NCOR2 corepressor binding to LXRβ, CRT; format: biochemical; set-up: The CRT selectivity assay incorporates GST-tagged LXR-LBD; purchased Thermo Fisher Scientific PV4660; conditions: read-out: NCOR2β, relative % activity at 1 μM
LXRα [6] = target: T1, LXRα; experiment: SMRT2 corepressor binding to LXRα, CRT; format: biochemical; set-up: The CRT selectivity assay incorporates GST-tagged LXR-LBD; purchased Thermo Fisher Scientific PV4657; conditions: read-out: SMRT2α, relative % activity at 1 μM
LXRβ [7] = target: T2, LXRβ; experiment: SMRT2 corepressor binding to LXRβ, CRT; format: biochemical; set-up: The CRT selectivity assay incorporates GST-tagged LXR-LBD; purchased Thermo Fisher Scientific PV4660; conditions: for activity at 1 µM: read-out: SMRT2β, relative % activity at 1 μM
[8] = ligand 1 µM, interpolated from concentration-response, normalized, heat map Figure 9A

| SMILES | ABCA1 induction response/phenotype in CCF cells (ABCA1) | Lipogenic gene transcription (SREBF1, FAS, SCD1) by RT-PCR (SREBF1, FAS, and SCD1) | Corepressor (NCOR2, SMRT2) displacement or stabilization, across LXR isoforms (LXR) | Hepatic effects in NASH mouse model [1] | Antagonism of 24HC agonism at LXRα (SRC-1 CRT) (LXRα [2]) | Antagonism of 24HC agonism at LXRβ (SRC-1 CRT) (LXRβ [3]) | activity at 1 µM (LXRα [4]; [8]) [%] | activity at 1 µM (LXRβ [5]) [%] | activity at 1 µM (LXRα [6]; [8]) [%] | Effect on SMRT2 binding to LXRβ (LXRβ [7]) | activity at 1 µM (LXRβ [7]) [%] | Antagonism of 24HC agonism at LXRβ (SRC-1 CRT) (LXRβ [3]; in the presence of 24HC (3 µM)) | activity at 1 µM (LXRα [4]) [%] | activity at 1 µM (LXRα [6]) [%] |
| --- | --- | --- | --- | --- | --- | --- | --- | --- | --- | --- | --- | --- | --- | --- |
| Cc1cc(C)c(S(=O)(=O)N(Cc2ccc(-c3cccc(S(C)(=O)=O)c3)cc2)Cc2ccc(C(F)(F)F)o2)c(C)c1 [GSK2033] | inverse agonist activity in cells | reducing lipogenic gene transcription below baseline | little or no ability to displace NCOR2 and SMRT2 corepressors from LXR; also recorded: does not stabilize a conformation that disrupts corepressor binding to LXRα | no beneficial effects on hepatic steatosis | without effect on LXRα | antagonized the agonism of 24HC at LXRβ | 97.7 | 57.7 | 92.9 | selectively displace SMRT2 from LXRβ | 93.4 | – | – | – |
| CCOC(=O)c1ccc(CN(Cc2ccc(-c3cccc(S(C)(=O)=O)c3)cc2)S(=O)(=O)c2c(C)cc(C)cc2C)o1 [SR9238] | inverse agonist activity in cells | reducing lipogenic gene transcription below baseline | strong agonist responses | significantly reduced hepatic inflammation and fibrosis | without effect on LXRα | – | – | 21.9 | – | – | 69.2 | antagonized the agonism of 24HC at LXRβ | 64.5 | 64.5 |
